32 molecules from ChEMBL document CHEMBL1145349, “Discovery of 3-hydroxy-4-carboxyalkylamidino-5-arylamino-isothiazoles as potent MEK1 inhibitors” (Bioorg Med Chem Lett, 2006) can be followed below.

Structures are written as SMILES.

The assay has as its target Dual specificity mitogen-activated protein kinase kinase 1 (Homo sapiens, UniProt Q02750). Put plainly: Inhibition of MEK1.

Sequence of Dual specificity mitogen-activated protein kinase kinase 1 (Q02750 whole entry): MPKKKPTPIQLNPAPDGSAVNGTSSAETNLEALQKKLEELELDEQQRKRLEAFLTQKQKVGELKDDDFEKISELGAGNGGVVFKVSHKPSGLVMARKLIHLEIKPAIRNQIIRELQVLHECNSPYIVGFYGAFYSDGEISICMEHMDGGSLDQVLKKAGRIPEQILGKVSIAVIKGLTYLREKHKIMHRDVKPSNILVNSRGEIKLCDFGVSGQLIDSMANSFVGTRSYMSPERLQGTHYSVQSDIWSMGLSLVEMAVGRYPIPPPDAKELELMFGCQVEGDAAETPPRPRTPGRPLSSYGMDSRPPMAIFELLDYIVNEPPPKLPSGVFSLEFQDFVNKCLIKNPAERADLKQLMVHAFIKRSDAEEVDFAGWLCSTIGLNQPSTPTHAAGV

On to `N#Cc1c(O)nsc1N1CCCCC1`, for which the IC50 (usually the concentration that inhibits the measured activity by half) is more than 5 µM.

The molecule `Cc1cccc(Nc2s[nH]c(=O)c2C#N)c1` returned an IC50 of more than 5 µM.

`N#Cc1c(O)nsc1Nc1cccc([N+](=O)[O-])c1` yielded an IC50 of more than 5 µM.

Molecule `Cc1ccc(Nc2snc(O)c2C(=N)NN2CCCCC2)cc1` showed an IC50 of more than 2 µM.

Molecule `N#Cc1c(O)nsc1NCCc1ccccc1` had a concentration for half-maximal inhibition (IC50) of more than 5 µM.

`COc1cccc(Nc2snc(O)c2C#N)c1` returned an IC50 of more than 5 µM.

On to `COc1ccccc1Nc1snc(O)c1C#N`, for which the 50% inhibitory concentration (IC50) is more than 5 µM.

Take `COc1nsc(Nc2ccccc2)c1C#N`: the concentration for half-maximal inhibition (IC50) was more than 5 µM.

For `N#Cc1c(O)nsc1Oc1ccc(Oc2ccccc2)cc1`, the IC50 was more than 5 µM.

As to `CC(C)c1ccc(Sc2snc(O)c2C#N)cc1`, the IC50 was more than 5 µM.

`N#Cc1c(O)nsc1Nc1ccccc1[N+](=O)[O-]`: the concentration for half-maximal inhibition (IC50) was more than 5 µM.

As to `N#Cc1c(O)nsc1NCCCN1CCOCC1`, the concentration for half-maximal inhibition (IC50) was more than 5 µM.

With `N#Cc1ccc(Nc2s[nH]c(=O)c2C#N)cc1`, the IC50 was more than 5 µM.

Molecule `Cc1ccc(Nc2snc(O)c2C#N)cc1` had an IC50 of more than 5 µM.

Molecule `CC(Nc1snc(O)c1C#N)c1ccccc1` (configuration not stated) registered an IC50 of more than 5 µM.

The molecule `N#Cc1c(NCC2CCCCC2)s[nH]c1=O` showed an IC50 of more than 5 µM.

In turn, `N#Cc1c(O)nsc1Nc1ccc([N+](=O)[O-])cc1` showed a half-maximal inhibitory concentration (IC50) of more than 5 µM.

`Cc1ccccc1Nc1snc(O)c1C#N` gave an IC50 of more than 5 µM.

As for `COC(=O)c1cccc(Nc2s[nH]c(=O)c2C#N)c1`, the IC50 was more than 5 µM.

In the case of `Cc1ccc(Nc2snc(O)c2/C(N)=N/O)cc1`, the half-maximal inhibitory concentration (IC50) is more than 2 µM.

`N#Cc1c(O)nsc1Nc1cccnc1` showed an IC50 of more than 5 µM.

For `COc1ccc(Nc2snc(O)c2C#N)cc1`, the IC50 was more than 5 µM.

In turn, `COc1cc(Nc2snc(O)c2-c2nn[nH]n2)cc(OC)c1` showed an IC50 of more than 2 µM.

On to `CC(C)Nc1snc(O)c1C#N`, for which the IC50 is more than 5 µM.

For the molecule `N#Cc1c(O)nsc1Nc1ccccc1C(F)(F)F`, the half-maximal inhibitory concentration (IC50) was more than 5 µM.

As for `N#Cc1c(O)nsc1Nc1ccc(Cl)cc1`, it took 0.41 µM to reach half-maximal inhibition (IC50).

Molecule `COCCCNc1snc(O)c1C#N` displayed an IC50 of more than 5 µM.

In turn, `N#Cc1c(O)nsc1Nc1ccccc1` showed a concentration for half-maximal inhibition (IC50) of 7 µM.

`N#Cc1c(O)nsc1NCCc1ccc(O)cc1` returned an IC50 of more than 5 µM.

Molecule `CCCCNc1snc(O)c1C#N` returned an IC50 of more than 5 µM.

Molecule `N#Cc1c(O)nsc1NCCc1cccs1` displayed an IC50 of more than 5 µM.

In the case of `Cn1sc(Nc2ccccc2)c(C#N)c1=O`, the IC50 was more than 5 µM.
